This passage reports EC50, pKDapp and Kd results from article PMC11876601 (Molecular Systems Biology, 2025).

One assay relates to TBKBP1. As to conditions: TBKBP1, 5 cell line mix lysate, Kinobeads ε, ref Reinecke et al. (2023), cited from earlier work.
The test system of a further assay is RPS6KA6. More on the design: method as in Reinecke et al. (2023). The following applies: RPS6KA6, 5 cell line mix lysate, Kinobeads ε, ref Reinecke et al. (2023), cited from earlier work.
The target in another assay is SLK. On the set-up: method as in Reinecke et al. (2023). The following applies: 5 cell line mix lysate, Kinobeads ε, ref Reinecke et al. (2023), cited from earlier work.
A further assay concerns MARK2. As to conditions: MARK2, 5 cell line mix lysate, Kinobeads ε, ref Reinecke et al. (2023), cited from earlier work.
The subject of the next assay is MAPK7. On the set-up: method as in Reinecke et al. (2023). As to conditions: MAPK7, 5 cell line mix lysate, Kinobeads ε, ref Reinecke et al. (2023), cited from earlier work.
A further assay concerns FLT4. More on the design: method as in Reinecke et al. (2023). The following applies: FLT4, 5 cell line mix lysate, Kinobeads ε, ref Reinecke et al. (2023), cited from earlier work.
The test system of a further assay is MAP3K11. The following applies: MAP3K11, 5 cell line mix lysate, Kinobeads ε, ref Reinecke et al. (2023), cited from earlier work.
In another assay the target is TTK. More on the design: method as in Reinecke et al. (2023). As to conditions: 5 cell line mix lysate, Kinobeads ε, ref Reinecke et al. (2023), cited from earlier work.
Another assay relates to PHKA2. On the set-up: method as in Reinecke et al. (2023). As to conditions: PHKA2, 5 cell line mix lysate, Kinobeads ε, ref Reinecke et al. (2023), cited from earlier work.
A further assay has as its system WEE1. As to conditions: WEE1, 5 cell line mix lysate, Kinobeads ε, ref Reinecke et al. (2023), cited from earlier work.
The next assay relates to RPS6KA1. More on the design: method as in Klaeger et al. (2017). As to conditions: lysate 4 cell line mix (Colo205, K-562, MV-4-11, and SK-N-BE(2)), Kinobeads y, ref Klaeger et al. (2017); cited from earlier work.
The test system of the next assay is PDO UME061. As to the kind of experiment: PDO viability assay (CellTiter-Glo, 72 h). Type of assay: cell-based. As to conditions: Homo sapiens. How it is done:
Primary patient-derived PDAC organoid (PDO) experiments were performed in the laboratories of Prof. Maximilian Reichert (University Hospital of the TU Munich, Germany, PDO set 1: B250, B535, B678) and Prof. Jens T. Siveke (University Hospital Essen, Germany; PDO set 2: UME008, UME012, UME051, UME053, UME060, UME061). PDOs were generated from surgical resection, EUS-guided fine needle biopsy (EUS-FNB), or ascites (Appendix Table S2). Surgical specimens were first minced with a sterile scalpel and subsequently washed with Anti-Anti solution and washing medium (PDO set 1), or vice versa (PDO set 2; Appendix Table S3). Biopsy samples were directly washed with an Anti-Anti solution and washing medium. Samples were digested using 1 ml of digestion medium at 37 °C while shaking, and the enzymatic reaction was stopped by adding 15 ml of washing medium (Appendix Table S3). […]
For viability assays in PDOs, confluent organoids were removed from medium, and Matrigel was dissolved by adding 200 μl (PDO set 1) or 2 ml (PDO set 2) of Cell Recovery Solution (Corning), and additionally 500 μl of DPBS (PDO set 1 only). […] After 72 h, cell viability was measured using the CellTiter-Glo Luminescent Cell Viability Assay (Promega) diluted 1:5 in the final volume of the well. […]

In general, EC50 refers to the midpoint of the concentration-response curve.

Take `COc1cc(N2CCC(N3CCN(C)CC3)CC2)ccc1Nc1ncc(Cl)c(Nc2ccccc2P(C)(C)=O)n1` [Brigatinib]: the EC50 with TBKBP1 is 940 nM; with RPS6KA6, 93.6 nM; in the assay with SLK, 523 nM; in the assay on MARK2, 247 nM; in the assay on MAPK7, 1060 nM; in the assay with FLT4 it was 369 nM. Also, the EC50 in the assay on MAP3K11 was 3200 nM; in the assay with TTK, 629 nM; in the assay with PHKA2, 19.7 nM; in the assay with WEE1, 1950 nM. In addition, the pKDapp is 6.13 at TBKBP1; 7.40 on RPS6KA6; 6.33 on SLK; 6.73 on MARK2; 6.08 at MAPK7; 6.43 at FLT4. Further, the pKDapp at MAP3K11 is reported as 5.65; at TTK it was 6.20; on PHKA2, 7.71; at WEE1 it was 5.91. Also, the Kd was 746 nM on TBKBP1 (read-out: KDapp); 39.5 nM at RPS6KA6 (read-out: KDapp); 466 nM on SLK (read-out: KDapp); 186 nM on MARK2 (read-out: KDapp); 828 nM at MAPK7 (read-out: KDapp); 369 nM at FLT4 (read-out: KDapp). Moreover, the Kd is 2230 nM at MAP3K11 (read-out: KDapp), 629 nM on TTK (read-out: KDapp), 19.7 nM at PHKA2 (read-out: KDapp) and 1240 nM on WEE1 (read-out: KDapp).

As for `C[C@]12O[C@H](C[C@]1(O)CO)n1c3ccccc3c3c4c(c5c6ccccc6n2c5c31)CNC4=O` [Lestaurtinib], the concentration giving a half-maximal response (EC50) with RPS6KA1 was 3290 nM.

In the case of `Nc1ccn([C@@H]2O[C@H](CO)[C@@H](O)C2(F)F)c(=O)n1` [GEM, Gemcitabine], the EC50 with PDO UME061 (GEM alone) stood at 5.8 nM; with PDO UME061 (experiment GEM (GEM alone), mean of replicates) it was 5.78 nM.
